Experimental data published in patent publication EP1116715A1, “Tetramic acid derivatives useful in medicines and foodstuffs” (priority 2000, dated 2001).
Values after ≈ are worked out from the molar mass of the structure shown.

Assays:
Assay type in all cases: cell-based
Bakterien = assay: antibacterial activity of synthetic product compared with natural reutericyclin; conditions: relative to natural reutericyclin
Source text: (§1) Das Wirkungsspektrum von Reutericyclin wurde mit Hilfe des Naturstoffes untersucht, der aus Lactobacillus reuteri LTH 2584 wie oben beschrieben isoliert wurde. Die antimikrobielle Aktivität wurde gegenüber einer Vielzahl unterschiedlicher Bakterien getestet. Hierfür wurden Verdünnungstest auf Mikrotiterplatten durchgeführt. Kulturen der verschiedenen Bakterien wurden mit Verdünnungen der erfindungsgemässen Verbindung behandelt und die Konzentration bestimmt, die eine Hemmung des Wachstums der Bakterien im Vergleich mit Kontrollen beobachten ließ.
Dies liegt vermutlich daran, daß 6 im Gegensatz zum natürlichen Reutericyclin als Razemat vorliegt.

[1] = system: Lactobacillus sanfranciscensis (ATCC27651); assay: microtitre plate dilution test, minimal inhibitory concentration; conditions: natural product isolated from Lactobacillus reuteri LTH 2584; growth inhibition versus controls; read-out: minimale inhibitorische Konzentration
Source text: as §1
(§2) Diese sogenannte minimale inhibitorische Konzentration wurde für das Bakterium Lactobacillus sanfranciscensis (ATCC27651) mit 0,1 +/-0,05 mg/l bestimmt.

L. curvatus (LTH1174) = assay: microtitre plate dilution test, growth inhibition; conditions: compared with L. sanfranciscensis (MIC 0,1 +/-0,05 mg/l)
Source text: as §1, §2

L. sakei (LTH673) = assay: microtitre plate dilution test, growth inhibition; conditions: compared with L. sanfranciscensis (MIC 0,1 +/-0,05 mg/l)
Source text: as §1, §2

[2] = system: Enterococcus Faecalis (DSM20409); assay: microtitre plate dilution test, growth inhibition; conditions: natural product, read-out: Konzentration, die eine Hemmung des Wachstums der Bakterien bewirkte
Source text: as §1
(§3) Einige humanpathogene Keime, wie beispielsweise Enterococcus Faecalis (DSM20409) erwies sich sogar noch als deutlich empfindlicher gegenüber Reutericyclin. Hier bewirkte eine Konzentration von etwa 0,05 mg/l eine Hemmung des Wachstums der Bakterien. […] Es war also keine Kreuzresistenz festzustellen.

[3] = system: Antibiotika-resistente klinische Isolate (Enterococcus Faecalis); assay: microtitre plate dilution test, antibiotic-resistant clinical isolates; conditions: no cross-resistance found
Source text: as §1, §3

Escherichia coli = assay: microtitre plate dilution test, growth inhibition; conditions: Gram-negative bacteria; at the tested concentrations
Source text: as §1

[4] = system: Listeria ivanovii (DSM20750); assay: microtitre plate dilution test, growth inhibition; conditions: compared with Lactobacillus sanfranciscensis
Source text: as §1

[5] = system: Staphylocokus aureus (SG511); assay: microtitre plate dilution test, growth inhibition; conditions: compared with Lactobacillus sanfranciscensis
Source text: as §1

Hefen = assay: microtitre plate dilution test, growth inhibition; conditions: yeasts; at the tested concentrations

| Structure (SMILES) | Menge für gleiche Ergebnisse wie eine Menge des natürlichen Reutericyclins (Bakterien; as a rule) | antibakterielle Wirkung (Bakterien) | MIC [1] | Empfindlichkeit gegenüber Reutericyclin (L. curvatus (LTH1174)) | Empfindlichkeit gegenüber Reutericyclin (L. sakei (LTH673)) | MIC [2] | Empfindlichkeit gegenüber Reutericyclin [3] | Empfindlichkeit gegenüber Reutericyclin (Escherichia coli) | Empfindlichkeit gegenüber Reutericyclin [4] | Empfindlichkeit gegenüber Reutericyclin [5] | Empfindlichkeit gegenüber Reutericyclin (Hefen) |
| --- | --- | --- | --- | --- | --- | --- | --- | --- | --- | --- | --- |
| CCCCCCC/C=C/C(=O)N1C(O)=C(C(C)=O)C(=O)C1CC(C)C (racemic) [compound 6, N-trans-2-Decenoyl-3-acetyl-5-iso-butylpyrrolidin-2,4-dion] | doppelte Mengen | etwas schwächer | – | – | – | – | – | – | – | – | – |
| CCCCCCC/C=C/C(=O)N1C(O)=C(C(C)=O)C(=O)[C@H]1CC(C)C [Reutericyclin, 5R-1-(2-trans-Decenoyl)-3-acetyl-5-isobutyl-delta2-pyrrolin4-on] | – | – | 0.1 µg/mL (≈ 0.286 µM) | sehr ähnliche Empfindlichkeiten | sehr ähnliche Empfindlichkeiten | ~0.05 µg/mL (≈ 0.143 µM) | ebenfalls eine Empfindlichkeit | nicht empfindlich | in einer entsprechenden Größenordnung wie Lactobacillus sanfranciscensis | in einer entsprechenden Größenordnung wie Lactobacillus sanfranciscensis | nicht empfindlich |
